We go through 71 compounds from patent publication US8278337B2, “Substituted pyridines that are JNK inhibitors” (Merck Sharp & Dohme, priority 2006, dated 2012).

Each structure is given as a SMILES string. Where “and” joins values, the source holds several entries; their conditions need not be identical. Equal values may be shown once.

This assay deals with JNK1 (Homo sapiens, UniProt P45983). In words: DELFIA kinase assay, JNK1. It counts as biochemical. The settings on record: DELFIA, biotinylated GST-ATF2 substrate, 10 minute pre-incubation, final ATP 7 uM. The method in brief: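 Enzyme (2 nM JNK1) was preincubated 10 min with 0–100 μM compound in HEPES pH 7.3 with 5% DMSO, then reacted 30 min at room temperature with biotinylated GST-ATF2 (6 ug/mL). Final ATP was 7 uM for JNK1, 4 uM for JNK2 and 2 uM for JNK3. Phospho-ATF2 was detected by DELFIA europium fluorescence (ex 340, em 615 nm).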
Sequence of JNK1 (P45983 whole entry, species assumed): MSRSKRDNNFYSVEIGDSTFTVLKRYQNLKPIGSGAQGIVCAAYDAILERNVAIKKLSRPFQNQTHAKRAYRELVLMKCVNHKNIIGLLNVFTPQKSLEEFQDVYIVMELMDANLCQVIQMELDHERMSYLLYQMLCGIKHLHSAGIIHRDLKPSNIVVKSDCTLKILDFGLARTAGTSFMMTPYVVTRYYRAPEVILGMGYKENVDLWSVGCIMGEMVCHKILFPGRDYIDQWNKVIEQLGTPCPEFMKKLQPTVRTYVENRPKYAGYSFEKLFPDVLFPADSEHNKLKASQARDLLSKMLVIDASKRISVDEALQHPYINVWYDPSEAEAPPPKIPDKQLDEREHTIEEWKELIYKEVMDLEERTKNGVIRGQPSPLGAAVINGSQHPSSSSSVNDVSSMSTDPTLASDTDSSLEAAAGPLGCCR

`COc1cccc(C(=O)NCc2ccc3nc(N)sc3c2)n1` [Compound 267]: the IC50 is greater than 1000 nM.
For the compound `CS(=O)(=O)c1ccc(CNC(=O)c2cccc(C(=O)NC3CCN(c4ccccn4)CC3)n2)cc1` [Compound 273], the IC50 is 102 to 959 nM.
Compound `CSc1nccc(N2CCC(NC(=O)c3cccc(C(=O)NCc4ccc(S(C)(=O)=O)cc4)n3)CC2)n1` [Compound 274] registered an IC50 greater than 1000 nM.
Regarding `CS(=O)(=O)c1ccc(CNC(=O)c2cccc(C(=O)NC3CCN(c4ccncc4)CC3)n2)cc1` [Compound 275], the IC50 was 1030 to 10000 nM and > 1000 nM.
The value for `CS(=O)(=O)c1ccc(CNC(=O)c2cccc(C(=O)NC3CCN(c4ccc5ccccc5n4)CC3)n2)cc1` [Compound 276] was greater than 1000 nM; that for `CC(C)NC(=O)c1cccc(-n2cc(I)cn2)n1` [Compound 287] was > 1000 nM and 1030 to 10000 nM; that for `O=C(Nc1cccnc1)c1cccc(-n2cc(I)cn2)n1` [Compound 288] was > 1000 nM and 1030 to 10000 nM.
In the case of `O=C(NCc1cccnc1)c1cccc(-n2cc(I)cn2)n1` [Compound 289], the IC50 fell in the range of 102 to 959 nM.
Turning to `Cc1nc2ccc(CNC(=O)c3cccc(-n4cc(I)cn4)n3)cc2[nH]1` [Compound 290], the IC50 was 102 to 959 nM.
Compound `O=C(NCc1cnn(-c2ccccc2)c1)c1cccc(-n2cc(I)cn2)n1` [Compound 291] yielded an IC50 of 102 to 959 nM.
In the case of `CS(=O)(=O)c1ccc(-n2cc(CNC(=O)c3cccc(-n4cc(I)cn4)n3)cn2)cc1` [Compound 292], the IC50 was in the range of 4 to 97 nM.
On to `CS(=O)(=O)c1ccc(-n2cc(CNC(=O)c3cccc(-n4cccn4)n3)cn2)cc1` [Compound 293], for which the IC50 lay within 102 to 959 nM.
Take `CS(=O)(=O)c1ccc(-n2cc(CNC(=O)c3cccc(-n4cc(-c5cccc(F)c5)cn4)n3)cn2)cc1` [Compound 295]: the IC50 is 102 to 959 nM.
`CS(=O)(=O)c1ccc(-n2cc(CNC(=O)c3cccc(-n4cc(-c5ccc(F)cc5)cn4)n3)cn2)cc1` [Compound 296]: the IC50 lay within 102 to 959 nM.
Take `CS(=O)(=O)c1ccc(-n2cc(CNC(=O)c3cccc(-n4cc(-c5ccccn5)cn4)n3)cn2)cc1` [Compound 297]: the half-inhibitory concentration (IC50) fell in the range of 4 to 97 nM.
The value for `CC(C)(C)c1nnc(-c2cccc(C(=O)NCc3cnn(-c4ccc(S(C)(=O)=O)cc4)c3)n2)o1` [Compound 302] was 102 to 959 nM; that for `CC(C)(C)c1nnc(-c2cccc(C(=O)NCc3ccc(S(C)(=O)=O)cc3)n2)o1` [Compound 303] was > 1000 nM and 1030 to 10000 nM.
Turning to `CC(C)NC(=O)c1cccc(C(=O)NCc2ccn(-c3ccc(S(C)(=O)=O)cc3)n2)n1` [Compound 309], the IC50 lay in the range of 102 to 959 nM.
Turning to `CC(C)NC(=O)c1cccc(C(=O)NCc2ccnn2-c2ccc(S(C)(=O)=O)cc2)n1` [Compound 310], the 50% inhibitory concentration (IC50) is > 1000 nM and 1030 to 10000 nM.
The value for `CS(=O)(=O)c1ccc(CNC(=O)c2cccc(-n3cccn3)n2)cc1` [Compound 314] was greater than 1000 nM; that for `CS(=O)(=O)c1ccc(CNC(=O)c2cccc(-n3ccc(C(F)(F)F)n3)n2)cc1` [Compound 315] was > 1000 nM and 1030 to 10000 nM.
For the compound `CS(=O)(=O)c1ccc(CNC(=O)c2cccc(-c3ccccc3F)n2)cc1` [Compound 316], the IC50 is > 1000 nM and 1030 to 10000 nM.
Take `CS(=O)(=O)c1ccc(CNC(=O)c2cccc(-c3ccccn3)n2)cc1` [Compound 317]: the IC50 was > 1000 nM and 1030 to 10000 nM.
In turn, `CS(=O)(=O)c1ccc(CNC(=O)c2cccc(-n3cc(I)cn3)n2)cc1` [Compound 318] registered an IC50 of 102 to 959 nM.
Take `CCOC(=O)c1cnn(-c2cccc(C(=O)NCc3ccc(S(C)(=O)=O)cc3)n2)c1` [Compound 319]: the half-maximal inhibitory concentration (IC50) is > 1000 nM and 1030 to 10000 nM.
As to `Cc1cc(C)n(-c2cccc(C(=O)NCc3ccc(S(C)(=O)=O)cc3)n2)n1` [Compound 320], the IC50 was > 1000 nM and 1030 to 10000 nM.
The value for `CS(=O)(=O)c1ccc(CNC(=O)c2cccc(-n3cc(-c4ccc(F)cc4)cn3)n2)cc1` [Compound 321] was > 1000 nM and 1030 to 10000 nM; that for `CS(=O)(=O)c1ccc(CNC(=O)c2cccc(-n3ncc4ccccc43)n2)cc1` [Compound 322] was 102 to 959 nM.
For `Cc1cnn(-c2cccc(C(=O)NCc3ccc(S(C)(=O)=O)cc3)n2)c1` [Compound 323], the 50% inhibitory concentration (IC50) is 1030 to 10000 nM and > 1000 nM.
Consider `Cc1ccn(-c2cccc(C(=O)NCc3ccc(S(C)(=O)=O)cc3)n2)n1` [Compound 324], for which the IC50 is 1030 to 10000 nM and > 1000 nM.
Next, `Cc1ccnn1-c1cccc(C(=O)NCc2ccc(S(C)(=O)=O)cc2)n1` [Compound 325]: 1030 to 10000 nM and > 1000 nM; `CS(=O)(=O)c1ccc(CNC(=O)c2cccc(-n3cncn3)n2)cc1` [Compound 326]: 1030 to 10000 nM and > 1000 nM.
For the compound `CS(=O)(=O)c1ccc(CNC(=O)c2cccc(-n3cnc(Br)c3)n2)cc1` [Compound 327], the IC50 was 1030 to 10000 nM and > 1000 nM.
Next, `CS(=O)(=O)c1ccc(CNC(=O)c2cccc(-n3cc(Br)cn3)n2)cc1` [Compound 328]: 102 to 959 nM; `COc1ccc(F)cc1-c1cccc(C(=O)NCc2ccc(S(C)(=O)=O)cc2)n1` [Compound 329]: 102 to 959 nM; `COc1cccc(-c2cccc(C(=O)NCc3ccc(S(C)(=O)=O)cc3)n2)c1F` [Compound 330]: 102 to 959 nM.
As for `COc1ccc(-c2cccc(C(=O)NCc3ccc(S(C)(=O)=O)cc3)n2)c(F)c1` [Compound 331], the IC50 lay within 102 to 959 nM.
`CS(=O)(=O)c1ccc(CNC(=O)c2cccc(-c3ccc4c(c3)OCO4)n2)cc1` [Compound 332] registered an IC50 of 102 to 959 nM.
With `Cn1cc(-c2cccc(C(=O)NCc3ccc(S(C)(=O)=O)cc3)n2)cn1` [Compound 333], the IC50 was > 1000 nM and 1030 to 10000 nM.
Consider `CS(=O)(=O)c1ccc(CNC(=O)c2cccc(-n3cc(-c4ccccn4)cn3)n2)cc1` [Compound 334], for which the IC50 was 102 to 959 nM.
In turn, `CS(=O)(=O)c1ccc(CNC(=O)c2cccc(-n3cc(-c4cnccn4)cn3)n2)cc1` [Compound 335] displayed an IC50 of 102 to 959 nM.
In the case of `CC(C)(C)c1cnn(-c2cccc(C(=O)NCc3ccc(S(C)(=O)=O)cc3)n2)c1` [Compound 336], the IC50 was 102 to 959 nM.
With `CC(C)CNc1cccc(C(=O)NCc2ccc(S(C)(=O)=O)cc2)n1` [Compound 337], the IC50 is > 1000 nM and 1030 to 10000 nM.
In the case of `CC(C)CN(C)c1cccc(C(=O)NCc2ccc(S(C)(=O)=O)cc2)n1` [Compound 338], the IC50 is > 1000 nM and 1030 to 10000 nM.
The value for `CS(=O)(=O)c1ccc(CNC(=O)c2cccc(-c3cc4ccccc4[nH]3)n2)cc1` [Compound 339] was > 1000 nM and 1030 to 10000 nM.
With `O=C(NCc1cnn(-c2cccc(C(F)(F)F)c2)c1)c1cccc(N2CCCC2)n1` [Compound 343], the IC50 was 1030 to 10000 nM and > 1000 nM.
Next, `O=C(NCc1cnn(-c2cccc(C(F)(F)F)c2)c1)c1cccc(N2Cc3ccccc3C2)n1` [Compound 344]: greater than 1000 nM; `O=C(NCc1cnn(-c2cccc(C(F)(F)F)c2)c1)c1cccc(N2CCOCC2)n1` [Compound 345]: 1030 to 10000 nM and > 1000 nM.
Next, `O=C(NCc1cnn(-c2cccc(C(F)(F)F)c2)c1)c1cccc(N2CCC(c3ccccn3)C2)n1` (centres unmarked) [Compound 346]: 1030 to 10000 nM and > 1000 nM; `O=C(NCc1cnn(-c2cccc(C(F)(F)F)c2)c1)c1cccc(-c2cc3ccccc3[nH]2)n1` [Compound 347]: 1030 to 10000 nM and > 1000 nM; `CC(=O)Nc1cccc(C(=O)NCc2cnn(-c3cccc(C(F)(F)F)c3)c2)n1` [Compound 353]: 102 to 959 nM.
The value for `CC(C)C(=O)Nc1cccc(C(=O)NCc2cnn(-c3cccc(C(F)(F)F)c3)c2)n1` [Compound 354] was 102 to 959 nM.
Regarding `COC(=O)Nc1cccc(C(=O)NCc2cnn(-c3cccc(C(F)(F)F)c3)c2)n1` [Compound 355], the IC50 was 102 to 959 nM.
For `NC(=O)Nc1cccc(C(=O)NCc2cnn(-c3cccc(C(F)(F)F)c3)c2)n1` [Compound 356], the IC50 was 102 to 959 nM.
Take `CNc1cccc(C(=O)NCc2cnn(-c3cccc(C(F)(F)F)c3)c2)n1` [Compound 362]: the IC50 fell in the range of 102 to 959 nM.
Regarding `CC(=O)N(C)c1cccc(C(=O)NCc2cnn(-c3cccc(C(F)(F)F)c3)c2)n1` [Compound 363], the IC50 was > 1000 nM and 1030 to 10000 nM.
For the compound `CC(C)C(=O)N(C(=O)C(C)C)c1cccc(C(=O)NCc2cnn(-c3cccc(C(F)(F)F)c3)c2)n1` [Compound 364], the IC50 is > 1000 nM and 1030 to 10000 nM.
Turning to `CC(C)C(=O)N(C)c1cccc(C(=O)NCc2cnn(-c3cccc(C(F)(F)F)c3)c2)n1` [Compound 365], the IC50 was > 1000 nM and 1030 to 10000 nM.
Compound `CCOC(=O)N1CCC(NC(=O)c2cccc(C(=O)NCc3ccc(S(C)(=O)=O)cc3)c2)CC1` [Compound 371] gave an IC50 greater than 1000 nM.
The value for `CCOC(=O)N1CCC(NC(=O)c2cccc(C(=O)NCc3ccc4c(c3)OCO4)c2)CC1` [Compound 372] was greater than 1000 nM; that for `CS(=O)(=O)c1ccc(CNC(=O)c2cccc(-c3nc4ccccc4[nH]3)n2)cc1` [Compound 376] was 102 to 959 nM.
As to `CC(C)NC(=O)c1cccc(-c2nc3ccccc3[nH]2)n1` [Compound 377], the IC50 was > 1000 nM and 1030 to 10000 nM.
As for `O=C(NCc1nc2ccccc2s1)c1cccc(-c2nc3ccccc3[nH]2)n1` [Compound 378], the IC50 was in the range of 102 to 959 nM.
The value for `COc1cccc2ccc(C(=O)NCc3ccc(S(C)(=O)=O)cc3)nc12` [Compound 383] was 102 to 959 nM.
In the case of `CCNC(=O)Oc1cccc2ccc(C(=O)NCc3ccc(S(C)(=O)=O)cc3)nc12` [Compound 384], the IC50 is > 1000 nM and 1030 to 10000 nM.
`CCOC(=O)N1CCC(NC(=O)c2cccc(Nc3cccnc3)n2)CC1` [Compound 388] showed a 50% inhibitory concentration (IC50) greater than 1000 nM.
On to `CCOC(=O)N1CCC(NC(=O)c2cccc(Nc3ccc4ncccc4c3)n2)CC1` [Compound 389], for which the IC50 is greater than 1000 nM.
Consider `CCOC(=O)N1CCC(NC(=O)c2cccc(Nc3ccc(N4CCOCC4)cc3)n2)CC1` [Compound 390], for which the IC50 was greater than 1000 nM.
The compound `CCOC(=O)N1CCC(NC(=O)c2cccc(NCc3cccnc3)n2)CC1` [Compound 391] displayed an IC50 greater than 1000 nM.
As to `CCOC(=O)N1CCC(NC(=O)c2cccc(NCc3ccc4c(c3)OCO4)n2)CC1` [Compound 392], the IC50 was greater than 1000 nM.
`CCOC(=O)N1CCC(NC(=O)c2cccc(NCCc3ccncc3)n2)CC1` [Compound 393] showed an IC50 greater than 1000 nM.

What is called IC50 is the concentration needed to halve the response being measured. Low readings indicate inhibition by little substance, high ones a need for much substance.
